Our source for the IC50 values is PMC13165350, “In Vitro Antiproliferative Effects of Benzothiazole-Based Aminosquaraine Dyes Against Cancer Cell Lines” (Molecules, 2026).

The subject of this assay is MCF-7 cells (breast adenocarcinoma). Put plainly: cells. Format: cell-based. The following applies: Homo sapiens, MCF7; MTT, 72 h, 0.01–50 µM, dark conditions.

Description: The cytotoxic effects of the aminosquaraines 1–8 were evaluated in breast (MCF-7 and T47D) and prostate (LNCaP) cancer cell lines using the MTT assay, as previously described [17]. […] Normal human dermal fibroblasts (NHDF) were included as a non-cancer model to assess tumor selectivity.
In a preliminary screening, cells were exposed to a single concentration (30 µM) of each dye for 72 h to assess metabolic activity.
The studied compounds were dissolved in dimethyl sulfoxide to prepare 10 mM stock solutions and stored at 4 °C. Working solutions were prepared from these stocks at the desired concentrations (30 µM for preliminary studies and 0.01, 0.1, 1, 10, 25, and 50 µM for concentration–response studies) by dilution in complete culture medium immediately before each experiment.
Metabolic activity was assessed by quantifying the reduction of 3-(4,5-dimethylthiazol-2-yl)-2,5-diphenyltetrazolium bromide (MTT), according to a previously described procedure [17]. […] Absorbance was recorded at 570 nm using an xMark™ microplate reader (Bio-Rad, Hercules, CA, USA) using Microplate Manager 6.3 software. Cell viability was calculated as a percentage relative to untreated control cells.
Selectivity indices were determined as the ratio between IC50 values obtained in the NHDF cell line and those obtained in the corresponding tumor cell lines.

Regarding `O=c1[nH]cc(F)c(=O)[nH]1` [5-FU, 5-fluorouracil], the IC50 worked out at 1710 nM.
